Source: ChEMBL document CHEMBL4680144, “N-thiadiazole-4-hydroxy-2-quinolone-3-carboxamides bearing heteroaromatic rings as novel antibacterial agents: Design, synthesis, biological evaluation and target identification” (Eur J Med Chem, 2020)
Converted amounts (≈) assume the structure as drawn.

tested on: Staphylococcus aureus; test: Antibacterial activity against wild type methicillin-sensitive Staphylococcus aureus ATCC 29213 assessed as inhibition of bacterial growth incubated for 18 to 24 hrs by broth microdilution method; type: functional; conditions: time 18-24 hrs

SMILES	MIC [µg/mL]
CCCCc1nnc(NC(=O)c2c(O)c3ccccc3n(CC)c2=O)s1	0.1 (≈ 0.268 µM)
CCOc1ccc(-c2nnc(NC(=O)c3c(O)c4ccccc4n(CC)c3=O)s2)cc1	100 (≈ 229 µM)
CCn1c(=O)c(C(=O)Nc2nnc(C3CC3)s2)c(O)c2ccccc21	3.12 (≈ 8.75 µM)
CCn1c(=O)c(C(=O)Nc2nnc(-c3cccnc3)s2)c(O)c2ccccc21	0.39 (≈ 0.991 µM)

tested on: Staphylococcus aureus; test: Antibacterial activity against methicillin-resistant Staphylococcus aureus clinical isolate 15-1 assessed as inhibition of bacterial growth incubated for 18 to 24 hrs by broth microdilution method; type: functional; conditions: time 18-24 hrs

SMILES	MIC [µg/mL]
CCCCc1nnc(NC(=O)c2c(O)c3ccccc3n(CC)c2=O)s1	2 (≈ 5.37 µM)
CCn1c(=O)c(C(=O)Nc2nnc(-c3cccnc3)s2)c(O)c2ccccc21	0.5 (≈ 1.27 µM)

tested on: Staphylococcus aureus; test: Antibacterial activity against methicillin-resistant Staphylococcus aureus clinical isolate 15-2 assessed as inhibition of bacterial growth incubated for 18 to 24 hrs by broth microdilution method; type: functional; conditions: time 18-24 hrs

SMILES	MIC [µg/mL]
CCCCc1nnc(NC(=O)c2c(O)c3ccccc3n(CC)c2=O)s1	2 (≈ 5.37 µM)
CCn1c(=O)c(C(=O)Nc2nnc(-c3cccnc3)s2)c(O)c2ccccc21	0.5 (≈ 1.27 µM)

tested on: Staphylococcus aureus; test: Antibacterial activity against methicillin-resistant Staphylococcus aureus clinical isolate 15-3 assessed as inhibition of bacterial growth incubated for 18 to 24 hrs by broth microdilution method; type: functional; conditions: time 18-24 hrs

SMILES	MIC [µg/mL]
CCCCc1nnc(NC(=O)c2c(O)c3ccccc3n(CC)c2=O)s1	2 (≈ 5.37 µM)
CCn1c(=O)c(C(=O)Nc2nnc(-c3cccnc3)s2)c(O)c2ccccc21	0.5 (≈ 1.27 µM)

tested on: Staphylococcus aureus; test: Antibacterial activity against methicillin-resistant Staphylococcus aureus clinical isolate 15-6 assessed as inhibition of bacterial growth incubated for 18 to 24 hrs by broth microdilution method; type: functional; conditions: time 18-24 hrs

SMILES	MIC [µg/mL]
CCCCc1nnc(NC(=O)c2c(O)c3ccccc3n(CC)c2=O)s1	2 (≈ 5.37 µM)
CCn1c(=O)c(C(=O)Nc2nnc(-c3cccnc3)s2)c(O)c2ccccc21	0.5 (≈ 1.27 µM)

tested on: Staphylococcus aureus; test: Antibacterial activity against methicillin-resistant Staphylococcus aureus clinical isolate 15-7 assessed as inhibition of bacterial growth incubated for 18 to 24 hrs by broth microdilution method; type: functional; conditions: time 18-24 hrs

SMILES	MIC [µg/mL]
CCCCc1nnc(NC(=O)c2c(O)c3ccccc3n(CC)c2=O)s1	4 (≈ 10.7 µM)
CCn1c(=O)c(C(=O)Nc2nnc(-c3cccnc3)s2)c(O)c2ccccc21	0.5 (≈ 1.27 µM)

tested on: Staphylococcus aureus; test: Antibacterial activity against methicillin-resistant Staphylococcus aureus clinical isolate 15-8 assessed as inhibition of bacterial growth incubated for 18 to 24 hrs by broth microdilution method; type: functional; conditions: time 18-24 hrs

SMILES	MIC [µg/mL]
CCCCc1nnc(NC(=O)c2c(O)c3ccccc3n(CC)c2=O)s1	2 (≈ 5.37 µM)
CCn1c(=O)c(C(=O)Nc2nnc(-c3cccnc3)s2)c(O)c2ccccc21	0.5 (≈ 1.27 µM)

tested on: Staphylococcus aureus; test: Antibacterial activity against methicillin-resistant Staphylococcus aureus clinical isolate 15-9 assessed as inhibition of bacterial growth incubated for 18 to 24 hrs by broth microdilution method; type: functional; conditions: time 18-24 hrs

SMILES	MIC [µg/mL]
CCCCc1nnc(NC(=O)c2c(O)c3ccccc3n(CC)c2=O)s1	2 (≈ 5.37 µM)
CCn1c(=O)c(C(=O)Nc2nnc(-c3cccnc3)s2)c(O)c2ccccc21	0.5 (≈ 1.27 µM)

tested on: Staphylococcus aureus; test: Antibacterial activity against methicillin resistant and vancomycin-intermediate sensitive Staphylococcus aureus ATCC 700699 assessed as inhibition of bacterial growth incubated for 18 to 24 hrs by broth microdilution method; type: functional; conditions: time 18-24 hrs

SMILES	MIC [µg/mL]
CCCCc1nnc(NC(=O)c2c(O)c3ccccc3n(CC)c2=O)s1	4 (≈ 10.7 µM)
CCn1c(=O)c(C(=O)Nc2nnc(-c3cccnc3)s2)c(O)c2ccccc21	1 (≈ 2.54 µM)

tested on: Staphylococcus aureus; test: Antibacterial activity against methicillin resistant and vancomycin-intermediate sensitive Staphylococcus aureus ATCC 700788 assessed as inhibition of bacterial growth incubated for 18 to 24 hrs by broth microdilution method; type: functional; conditions: time 18-24 hrs

SMILES	MIC [µg/mL]
CCCCc1nnc(NC(=O)c2c(O)c3ccccc3n(CC)c2=O)s1	4 (≈ 10.7 µM)
CCn1c(=O)c(C(=O)Nc2nnc(-c3cccnc3)s2)c(O)c2ccccc21	1 (≈ 2.54 µM)

tested on: Staphylococcus epidermidis; test: Antibacterial activity against methicillin-sensitive Staphylococcus epidermidis clinical isolate 15-3 assessed as inhibition of bacterial growth incubated for 18 to 24 hrs by broth microdilution method; type: functional; conditions: time 18-24 hrs

SMILES	MIC [µg/mL]
CCCCc1nnc(NC(=O)c2c(O)c3ccccc3n(CC)c2=O)s1	2 (≈ 5.37 µM)
CCn1c(=O)c(C(=O)Nc2nnc(-c3cccnc3)s2)c(O)c2ccccc21	2 (≈ 5.08 µM)

tested on: Staphylococcus epidermidis; test: Antibacterial activity against methicillin-sensitive Staphylococcus epidermidis clinical isolate 15-4 assessed as inhibition of bacterial growth incubated for 18 to 24 hrs by broth microdilution method; type: functional; conditions: time 18-24 hrs

SMILES	MIC [µg/mL]
CCCCc1nnc(NC(=O)c2c(O)c3ccccc3n(CC)c2=O)s1	2 (≈ 5.37 µM)
CCn1c(=O)c(C(=O)Nc2nnc(-c3cccnc3)s2)c(O)c2ccccc21	1 (≈ 2.54 µM)

tested on: Staphylococcus epidermidis; test: Antibacterial activity against methicillin-resistant Staphylococcus epidermidis clinical isolate 15-1 assessed as inhibition of bacterial growth incubated for 18 to 24 hrs by broth microdilution method; type: functional; conditions: time 18-24 hrs

SMILES	MIC [µg/mL]
CCCCc1nnc(NC(=O)c2c(O)c3ccccc3n(CC)c2=O)s1	2 (≈ 5.37 µM)
CCn1c(=O)c(C(=O)Nc2nnc(-c3cccnc3)s2)c(O)c2ccccc21	1 (≈ 2.54 µM)

tested on: Staphylococcus epidermidis; test: Antibacterial activity against methicillin-resistant Staphylococcus epidermidis clinical isolate 15-2 assessed as inhibition of bacterial growth incubated for 18 to 24 hrs by broth microdilution method; type: functional; conditions: time 18-24 hrs

SMILES	MIC [µg/mL]
CCCCc1nnc(NC(=O)c2c(O)c3ccccc3n(CC)c2=O)s1	2 (≈ 5.37 µM)
CCn1c(=O)c(C(=O)Nc2nnc(-c3cccnc3)s2)c(O)c2ccccc21	1 (≈ 2.54 µM)

tested on: Staphylococcus epidermidis; test: Antibacterial activity against methicillin-resistant Staphylococcus epidermidis clinical isolate 15-3 assessed as inhibition of bacterial growth incubated for 18 to 24 hrs by broth microdilution method; type: functional; conditions: time 18-24 hrs

SMILES	MIC [µg/mL]
CCCCc1nnc(NC(=O)c2c(O)c3ccccc3n(CC)c2=O)s1	2 (≈ 5.37 µM)
CCn1c(=O)c(C(=O)Nc2nnc(-c3cccnc3)s2)c(O)c2ccccc21	1 (≈ 2.54 µM)

tested on: Enterococcus faecalis; test: Antibacterial activity against Enterococcus faecalis clinical isolate 15-1 assessed as inhibition of bacterial growth incubated for 18 to 24 hrs by broth microdilution method; type: functional; conditions: time 18-24 hrs

SMILES	MIC [µg/mL]
CCCCc1nnc(NC(=O)c2c(O)c3ccccc3n(CC)c2=O)s1	2 (≈ 5.37 µM)
CCn1c(=O)c(C(=O)Nc2nnc(-c3cccnc3)s2)c(O)c2ccccc21	> 64

tested on: Enterococcus faecalis; test: Antibacterial activity against Enterococcus faecalis clinical isolate 15-2 assessed as inhibition of bacterial growth incubated for 18 to 24 hrs by broth microdilution method; type: functional; conditions: time 18-24 hrs

SMILES	MIC [µg/mL]
CCCCc1nnc(NC(=O)c2c(O)c3ccccc3n(CC)c2=O)s1	2 (≈ 5.37 µM)
CCn1c(=O)c(C(=O)Nc2nnc(-c3cccnc3)s2)c(O)c2ccccc21	> 64

tested on: Enterococcus faecium; test: Antibacterial activity against Enterococcus faecium clinical isolate 15-1 assessed as inhibition of bacterial growth incubated for 18 to 24 hrs by broth microdilution method; type: functional; conditions: time 18-24 hrs

SMILES	MIC [µg/mL]
CCCCc1nnc(NC(=O)c2c(O)c3ccccc3n(CC)c2=O)s1	2 (≈ 5.37 µM)
CCn1c(=O)c(C(=O)Nc2nnc(-c3cccnc3)s2)c(O)c2ccccc21	> 64

tested on: Enterococcus faecium; test: Antibacterial activity against Enterococcus faecium clinical isolate 15-2 assessed as inhibition of bacterial growth incubated for 18 to 24 hrs by broth microdilution method; type: functional; conditions: time 18-24 hrs

SMILES	MIC [µg/mL]
CCCCc1nnc(NC(=O)c2c(O)c3ccccc3n(CC)c2=O)s1	2 (≈ 5.37 µM)
CCn1c(=O)c(C(=O)Nc2nnc(-c3cccnc3)s2)c(O)c2ccccc21	> 64

tested on: Enterococcus faecalis; test: Antibacterial activity against vancomycin-resistant Enterococcus faecalis ATCC 51299 assessed as inhibition of bacterial growth incubated for 18 to 24 hrs by broth microdilution method; type: functional; conditions: time 18-24 hrs

SMILES	MIC [µg/mL]
CCCCc1nnc(NC(=O)c2c(O)c3ccccc3n(CC)c2=O)s1	8 (≈ 21.5 µM)
CCn1c(=O)c(C(=O)Nc2nnc(-c3cccnc3)s2)c(O)c2ccccc21	> 64

tested on: Enterococcus faecalis; test: Antibacterial activity against vancomycin-resistant Enterococcus faecalis ATCC 700802 assessed as inhibition of bacterial growth incubated for 18 to 24 hrs by broth microdilution method; type: functional; conditions: time 18-24 hrs

SMILES	MIC [µg/mL]
CCCCc1nnc(NC(=O)c2c(O)c3ccccc3n(CC)c2=O)s1	8 (≈ 21.5 µM)
CCn1c(=O)c(C(=O)Nc2nnc(-c3cccnc3)s2)c(O)c2ccccc21	> 64

tested on: Enterococcus faecalis; test: Antibacterial activity against vancomycin-resistant Enterococcus faecalis ATCC 51575 assessed as inhibition of bacterial growth incubated for 18 to 24 hrs by broth microdilution method; type: functional; conditions: time 18-24 hrs

SMILES	MIC [µg/mL]
CCCCc1nnc(NC(=O)c2c(O)c3ccccc3n(CC)c2=O)s1	8 (≈ 21.5 µM)
CCn1c(=O)c(C(=O)Nc2nnc(-c3cccnc3)s2)c(O)c2ccccc21	> 64

tested on: not listed separately; test: Inhibition of Staphylococcus aureus Gyrase B using linear pBR322 DNA as substrate incubated for 30 mins in presence of ATP by ADP-Glo assay; conditions: not given

SMILES	IC50 [nM]
CCCCc1nnc(NC(=O)c2c(O)c3ccccc3n(CC)c2=O)s1	990
CCOc1ccc(-c2nnc(NC(=O)c3c(O)c4ccccc4n(CC)c3=O)s2)cc1	2300
CCn1c(=O)c(C(=O)Nc2nnc(C3CC3)s2)c(O)c2ccccc21	580
CCn1c(=O)c(C(=O)Nc2nnc(-c3cccnc3)s2)c(O)c2ccccc21	240
